The text below walks through data of US10189854B2, “Substituted pyrimidine compounds” (Grünenthal GmbH, priority 2014, dated 2019).

The target in the assay is human PDE4B1 (Homo sapiens (Human), UniProt Q07343). In words: TR-FRET assay using the LANCE Ultra cAMP kit to determine the activity of hPDE4B1. The format is biochemical. The note with it: IC50 inhibition of PDE4B, mean. An outline of the steps: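 Recombinant human PDE4B1 (Sf9-expressed, 0.96 U) incubated with compound and 500 nM cAMP in 50 mM Tris-HCl, 50 mM MgCl2, 5 mM DTT, pH 8.5, 30 min at room temperature. Residual cAMP read by TR-FRET (665/620 nm ratio) after IBMX stop. IC50 from ten-concentration curves as % inhibition of control.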
human PDE4B1, sequence (Q07343 whole entry): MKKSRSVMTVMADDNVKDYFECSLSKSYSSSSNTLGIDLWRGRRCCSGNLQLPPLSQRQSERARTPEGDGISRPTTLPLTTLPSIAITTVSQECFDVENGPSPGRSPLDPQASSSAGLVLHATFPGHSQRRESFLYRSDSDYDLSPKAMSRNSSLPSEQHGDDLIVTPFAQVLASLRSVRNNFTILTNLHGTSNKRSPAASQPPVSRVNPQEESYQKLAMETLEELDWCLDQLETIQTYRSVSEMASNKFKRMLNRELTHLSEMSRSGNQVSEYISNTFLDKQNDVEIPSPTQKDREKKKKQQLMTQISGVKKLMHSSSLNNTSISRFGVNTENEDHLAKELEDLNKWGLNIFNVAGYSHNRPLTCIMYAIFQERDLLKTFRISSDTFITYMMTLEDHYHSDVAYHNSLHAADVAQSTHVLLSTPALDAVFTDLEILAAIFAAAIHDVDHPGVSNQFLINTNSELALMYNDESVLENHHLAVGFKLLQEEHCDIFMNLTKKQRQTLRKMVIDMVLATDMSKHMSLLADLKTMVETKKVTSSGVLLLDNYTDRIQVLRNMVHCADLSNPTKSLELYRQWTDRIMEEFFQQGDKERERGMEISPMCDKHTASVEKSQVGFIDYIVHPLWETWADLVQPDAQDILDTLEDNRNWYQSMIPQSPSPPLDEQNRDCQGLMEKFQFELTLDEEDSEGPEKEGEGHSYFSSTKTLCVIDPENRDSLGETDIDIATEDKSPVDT
With `O=C(c1ccc2c(c1)N(c1ncc(-c3ccccc3F)cn1)CC21CC1)N1CCO[C@@H](CO)C1` [Compound 362, [1-[5-(2-Fluorophenyl)-pyrimidin-2-yl]-spiro[1,2-dihydro-indole-3,1′-cyclopropane]-6-yl]-[(2R)-2-(hydroxymethyl)-morpholin-4-yl]-methanone], the concentration for half-maximal inhibition (IC50) is below 0.1 µM.
`CN(CCO)C(=O)c1ccc2c(c1)N(c1ncc(-c3cc(C4(O)CC4)ccc3F)cn1)CC21CC1` [Compound 363, 1-[5-[2-Fluoro-5-(1-hydroxy-cyclopropyl)-phenyl]-pyrimidin-2-yl]-N-(2-hydroxy-ethyl)-N-methyl-spiro[1,2-dihydro-indole-3,1′-cyclopropane]-6-carboxylic acid amide]: the IC50 was below 0.1 µM.
As for `CN(CCO)C(=O)c1ccc2c(c1)N(c1ncc(-c3cc(F)ccc3F)cn1)CC21CC1` [Compound 364, 1-[5-(2,5-Difluoro-phenyl)-pyrimidin-2-yl]-N-(2-hydroxy-ethyl)-N-methyl-spiro[1,2-dihydro-indole-3,1′-cyclopropane]-6-carboxylic acid amide], the IC50 was below 0.1 µM.
`CN(CCO)C(=O)c1ccc2c(c1)N(c1ncc(-c3cc(C(F)(F)F)ccc3F)cn1)CC21CC1` [Compound 365, 1-[5-[2-Fluoro-5-(trifluoromethyl)-phenyl]-pyrimidin-2-yl]-N-(2-hydroxy-ethyl)-N-methyl-spiro[1,2-dihydro-indole-3,1′-cyclopropane]-6-carboxylic acid amide] had a half-inhibitory concentration (IC50) below 0.1 µM.
